Data set [1] relates to HCV (recombination virus strain J6/JFH/JC). The data set is described as follows: Anti-HCV activity in Huh7.5 cells, intracellular HCV RNA by real-time RT-PCR. In kind it is cell-based, hepatitis C virus (HCV). As to conditions: for pEC50: anti-HCV activity, 72 h, HCV RNA by RT-PCR. The protocol:
(§1) All of the synthesized compounds were examined for their anti-HCV activity and cytotoxicity in Huh 7.5 cells using specific real-time RT-PCR assay, as described in our previous publication. Anti-HCV activity was evaluated by measuring both EC50 (for anti-HCV activity) and CC50 (for cytotoxicity) values. As a key indication, the selectivity index (SI) was calculated as a ratio of CC50 to EC50. Anti-HCV activity of the study compound was estimated by combining its EC50 value with SI.
Huh7.5 cells were seeded into 96-well or 6-well plates (Costar) at a density of 3×10^4 cells/cm^2. After 24 h incubation, the cells were infected with HCV viral stock (recombination virus strain J6/JFH/JC, 45 IU/cell) and simultaneously treated with the test compounds at various concentrations.
Concentrations or solvent as the control. The culture medium was removed after 72 h incubation, the intracellular total RNA (in 96-well plates) was extracted with RNeasy Mini Kit (Qiagen), and total intracellular proteins (in 6-well plates) were extracted with Cyto-Buster Protein Extraction Reagent added with 1 mM protease inhibitor cocktail. The intracellular HCV RNA was quantified with a real time one-step reverse-transcription polymerase chain reaction (RT-PCR). HCV core protein was detected with western blot (see below).

The test system of a further data set is Huh7.5 cells. The data set is described as follows: Cytotoxicity assay (MTT) in Huh7.5 cells. It counts as cell-based, Human. The protocol:
as §1
Huh7.5 cells were seeded into 96-well plates (Costar) at a density of 3×10^4 cells/cm^2. After 24 h incubation. Fresh culture medium containing test compounds at various concentrations were added. 72 h later, Cytotoxicity was evaluated with 3-(4,5-Dimethylthiazol-2-yl)-2,5-diphenyltetrazolium bromide (MTT).

The values below come from article PMC3597726, “N-Substituted Benzyl Matrinic Acid Derivatives Inhibit Hepatitis C Virus (HCV) Replication through Down-Regulating Host Heat-Stress Cognate 70 (Hsc70) Expression” (PLoS ONE, 2013).

pEC50: −log10 of the molar value.

For `Cc1ccccc1CN1CC2CCCN3CCCC(C1CCCC(=O)O)C23` (centres unmarked) [Compound 7a, 12-N-2-Methylbenzyl matrinic acid], in data set [1], the “SI (selectivity index, CC50/EC50)” value amounted to 5.6 and the pEC50 was 3.69. In the data set with Huh7.5 cells, this compound showed a CC50 of 1130 µM.
For `Cc1cccc(CN2C[C@@H]3CCCN4CCC[C@@H]([C@H]34)[C@H]2CCCC(=O)O)c1` [Compound 7b, 12-N-3-Methylbenzyl matrinic acid], in data set [1], the “SI (selectivity index, CC50/EC50)” value was 9.0 and the pEC50 was 3.58. Besides, the CC50 in the data set on Huh7.5 cells was 2390 µM.
The like results for `O=C(O)CCC[C@@H]1[C@H]2CCCN3CCC[C@@H](CN1Cc1ccccc1F)[C@@H]23` [Compound 7d, 12-N-2-Fluorobenzyl matrinic acid] were, in that order, 19.0, 4.06 and 1660 µM.
Take `O=C(O)CCCC1C2CCCN3CCCC(CN1Cc1cccc(F)c1)C23` (centres unmarked) [Compound 7e, 12-N-3-Fluorobenzyl matrinic acid]: in data set [1], the “SI (selectivity index, CC50/EC50)” value is 8.4 and the negative-log EC50 (pEC50) is 3.77. In the data set on Huh7.5 cells, this compound showed a CC50 of 1410 µM.
In the same order, the values of `O=C(O)CCCC1C2CCCN3CCCC(CN1Cc1ccc(F)cc1)C23` (centres unmarked) [Compound 7f, 12-N-4-Fluorobenzyl matrinic acid] are greater than 15.1, 3.75 and greater than 2670 µM.
Turning to `O=C(O)CCCC1C2CCCN3CCCC(CN1Cc1ccccc1Cl)C23` (centres unmarked) [Compound 7g, 12-N-2-Chlorobenzyl matrinic acid], in data set [1], the “SI (selectivity index, CC50/EC50)” value is given as 7.3 and the negative logarithm of the EC50 (pEC50) is 3.75. In addition, the CC50 in the data set on Huh7.5 cells worked out at 1290 µM.
`O=C(O)CCCC1C2CCCN3CCCC(CN1Cc1cccc(Cl)c1)C23` (centres unmarked) [Compound 7h, 12-N-3-Chlorobenzyl matrinic acid]: in data set [1], the “SI (selectivity index, CC50/EC50)” value is greater than 28.9; the “anti-HCV activity (in words)” value is “slight improvement in comparison to the lead”; the pEC50 was 4.05. Besides, the CC50 in the data set on Huh7.5 cells was greater than 2560 µM.
`O=C(O)CCCC1C2CCCN3CCCC(CN1Cc1ccc(Cl)cc1)C23` (centres unmarked) [Compound 7i, 12-N-4-Chlorobenzyl matrinic acid]: in data set [1], the “SI (selectivity index, CC50/EC50)” value is 18.4 and the negative-log EC50 (pEC50) is 3.87. The compound also gave a 50% cytotoxic concentration (CC50) with Huh7.5 cells of 2500 µM.
In the same order, the values of `O=C(O)CCCC1C2CCCN3CCCC(CN1Cc1ccc(Cl)c(Cl)c1)C23` (centres unmarked) [Compound 7j, 12-N-3,4-Dichlorobenzyl matrinic acid] are 3.7, 3.57 and 1010 µM.
For the compound `O=C(O)CCCC1C2CCCN3CCCC(CN1Cc1ccc(Cl)cc1Cl)C23` (centres unmarked) [Compound 7k, 12-N-2,4-Dichlorobenzyl matrinic acid], in data set [1], the “SI (selectivity index, CC50/EC50)” value came to 1.3 and the pEC50 was 3.34. Besides, in the data set on Huh7.5 cells, the CC50 worked out at 578 µM.
As for `O=C(O)CCCC1C2CCCN3CCCC(CN1Cc1ccc(Br)cc1)C23` (centres unmarked) [Compound 7l, 12-N-4-Bromobenzyl matrinic acid], in data set [1], the “SI (selectivity index, CC50/EC50)” value came to 10.3 and the pEC50 is 3.92. The compound also yielded a CC50 with Huh7.5 cells of 1230 µM.
As for `O=C(O)CCC[C@@H]1[C@H]2CCCN3CCC[C@@H](CN1Cc1ccc(OC(F)(F)F)cc1)[C@@H]23` [Compound 7n, 12-N-4-Trifluoromethoxybenzyl matrinic acid], in data set [1], the “SI (selectivity index, CC50/EC50)” value is recorded as 15.5 and the pEC50 is 4.05. Further, the cytotoxic concentration (CC50) in the data set with Huh7.5 cells was 1380 µM.
`O=C(O)CCCC1C2CCCN3CCCC(CN1Cc1cccc4ccccc14)C23` (centres unmarked) [Compound 7o, 12-N-1-Naphthylmethylenyl matrinic acid]: in data set [1], the “SI (selectivity index, CC50/EC50)” value is less than 1.6; the “anti-HCV activity (in words)” value is on record as “lost the activity completely”; the pEC50 was less than 3.09. For the same compound, in the data set on Huh7.5 cells, the CC50 is 1300 µM.
For `COc1ccc(CN2CC3CCCN4CCCC(C2CCCC(=O)O)C34)cc1` (centres unmarked) [Compound 12a, 12-N-4-Methoxybenzyl sophoridinic acid], in data set [1], the “SI (selectivity index, CC50/EC50)” value is given as 18.5 and the pEC50 was 4.24. Moreover, half-maximal cytotoxicity in the data set with Huh7.5 cells (CC50) was put at 1060 µM.
